# Assays:
# [1] = Solubility of compounds in 50 mM phosphate buffer pH 7.4 by HPLC; format: physicochemical
# Procedure: Solubility is calculated using the following formula: […]
# [2] = statement in words; cited from earlier work
# mouse model of ARDS = conditions: treatment with classical KCa3.1 inhibitors; cited from earlier work
# [3] = biological target: erythrocyte KCa3.1 channels (Homo sapiens (Human), UniProt O15554); test: Erythrocyte KCa3.1 assay; format: cell-based; conditions: human erythrocytes, A23187-activated, 37° C.; read-out: RBC K (in vitro) Human IC50
# Procedure: Human blood was drawn from healthy human volunteers in a standard heparinized blood sampling vial (Vacutainer, Li/heparin, BD Bioscience, Plymouth, UK). The erythrocytes were packed by centrifugation, and the plasma and buffy coat were removed by aspiration. Erythrocytes were washed three times in the experimental salt solution and then stored at 0° C. until use. Blood samples from NMRI mice or from Wistar rats were treated similarly. The methodological principle is outlined in Macey et al. (1978) and further described in Strøbæk et al. (2013). Activation of the erythrocyte KCa3.1 channels were obtained by addition of the Ca^2+ ionophore A23187, which causes synchronized hyperpolarization, which is reported as a CCCP-mediated shift in the unbuffered extracellular pH of the erythrocyte suspension. Standard procedure: 3 mL unbuffered experimental salt solution (in mM: 2 KCl, 154 NaCl, 0.05 CaCl2) was heated to 37° C. with stirring. Packed erythrocytes were added (50 μL, final cytocrit 1.5%), and the extracellular pH (pHo) followed with a glass/calomel (pHG200-8/REF200, Radiometer, Denmark) electrode pair. CCCP (3 μL, final concentration 20 μM) was added followed by varying concentrations of test compounds (DMSO concentration constant). After pH stabilization at ˜7.2, A23187 (3 μL, final concentration 0.33 μM) was added to initiate the experiment. After the peak hyperpolarization was attained, the intracellular pH (pHi constant during the experiment) was found by haemolysing the erythrocytes via addition of 100 μL of Triton-X100.
# The erythrocyte membrane potential, Vm, was calculated according to: Vm=−61.5 mV×(pHo−pHi) and the fractional remaining Ca^2+-activated K^+-conductance at the concentration C of blocker, fGK(C), was calculated from
# [formula] where the K^+ equilibrium potential EK=−107 mV, the Cl^− equilibrium potential ECl=−12 mV and the Vm(0) and Vm(C) are the peak hyperpolarizations in the control and in the presence of a concentration of C of blocker respectively.
# IC50 values for compounds were calculated from a plot of fGK(C) versus C by a fit to the Hill equation, using a custom program written in the IGOR-Pro software (WaveMetrics, Lake Oswego, OR, USA). All IC50-values are reported in μM.
# [4] = 50 mM potassium phosphate buffer pH 7.40, 16 hr at ~25° C., 1600 μM incubation concentration
Structure (SMILES),"Measured Solubility in pH 7.4 phosphate buffer (mg/ml) [1, 4]","Measured Solubility in pH 7.4 phosphate buffer (μM) (rounded) [1, 4]",IC50 [3],further results
"O=C1CSc2ccccc2N1Cc1cccc(C(F)(F)F)c1 [NS6180, 4-[[3-(Trifluoromethyl)-phenyl]methyl]-2H-1,4-benzothiazin-3(4H)-one, reference compound]",,,,"Measured Solubility in pH 7.4 phosphate buffer (mg/ml) ([1]; 16 h, pH 7.4): 0.0009 mg/ml"
Clc1ccccc1C(c1ccccc1)(c1ccccc1)n1cccn1 [TRAM-34],,,,Water solubility [2]: extremely low water solubility; Gas exchange in mouse model of ARDS (mouse model of ARDS): improved gas exchange
"COC(=O)N(CCN(C)C)C1(c2ccc(F)c(C(F)(F)F)c2)CC1 [[1], Methyl N-(2-(dimethylamino)ethyl)-N-(1-(4-fluoro-3-(trifluoromethyl)phenyl)cyclopropyl) carbamate]",0.5409 mg/ml,1600 μM,330 nM,
"COC(=O)N(CC(C)(C)N)C1(c2ccc(F)c(C(F)(F)F)c2)CC1 [[2], Methyl (2-amino-2-methylpropyl)(1-(4-fluoro-3-(trifluoromethyl)phenyl)cyclopropyl)carbamate]",,,86 nM,"Measured Solubility in pH 7.4 phosphate buffer (μM) (rounded) ([1]; 16 h, pH 7.4): 1600 μM"
"COC(=O)N(CC1(N)CC1)C1(c2ccc(F)c(C(F)(F)F)c2)CC1 [[3], Methyl ((1-aminocyclopropyl)methyl)(1-(4-fluoro-3-(trifluoromethyl)phenyl)cyclopropyl) carbamate]",0.5599 mg/ml,1600 μM,160 nM,
"CC(C)(N)CN(CC1CC1)C1(c2ccc(F)c(C(F)(F)F)c2)CC1 [[8], N1-(cyclopropylmethyl)-N1-(1-(4-fluoro-3-(trifluoromethyl)phenyl)cyclopropyl)-2-methyl propane-1,2-diamine]",,,14 nM,"Measured Solubility in pH 7.4 phosphate buffer (μM) (rounded) ([1]; 16 h, pH 7.4): 1500 μM"
"CN1CCC1CN(CC(C)(C)O)C1(c2ccc(F)c(C(F)(F)F)c2)CC1 (stereo not drawn) [[16], 1-((1-(4-fluoro-3-(trifluoromethyl)phenyl)cyclopropyl)((1-methylazetidin-2-yl)methyl)amino)-2-methylpropan-2-ol]",,,400 nM,"Measured Solubility in pH 7.4 phosphate buffer (μM) (rounded) ([1]; 16 h, pH 7.4): 1600 μM"
"COC(=O)N(CC(C)(C)N)C1(c2cc(C(F)(F)F)c(F)cn2)CC1 [[17], Methyl (2-amino-2-methylpropyl)(1-(5-fluoro-4-(trifluoromethyl)pyridin-2-yl)cyclopropyl) carbamate]",0.5636 mg/ml,1500 μM,400 nM,
"COC(=O)N(C[C@@H]1CCCN1C)C1(c2ccc(F)c(C(F)(F)F)c2)CC1 [[27], Methyl (S)-(1-(4-fluoro-3-(trifluoromethyl)phenyl)cyclopropyl) ((1-methylpyrrolidin-2-yl)methyl) carbamate]",0.5918 mg/ml,1600 μM,300 nM,
"COC(=O)N(C[C@H]1CCCN1C)C1(c2ccc(F)c(C(F)(F)F)c2)CC1 [[31], Methyl (R)-(1-(4-fluoro-3-(trifluoromethyl)phenyl)cyclopropyl)((1-methylpyrrolidin-2-yl)methyl)carbamate]",,,81 nM,"Measured Solubility in pH 7.4 phosphate buffer (μM) (rounded) ([1]; 16 h, pH 7.4): 1500 μM"
"CCOC(=O)N(C[C@@H]1CCCN1C)C1(c2ccc(F)c(C(F)(F)F)c2)CC1 [[35], Ethyl (S)-(1-(4-fluoro-3-(trifluoromethyl)phenyl)cyclopropyl)((1-methylpyrrolidin-2-yl)methyl) carbamate]",0.5679 mg/ml,1500 μM,110 nM,
"CS(=O)(=O)N(C[C@@H]1CCCN1)C1(c2ccc(F)c(C(F)(F)F)c2)CC1 [[36], (S)—N-(1-(4-fluoro-3-(trifluoromethyl)phenyl)cyclopropyl)-N-(pyrrolidin-2-ylmethyl) methanesulfonamide]",0.3218 mg/ml,800 μM,320 nM,
"COC(=O)N(C[C@H]1COCCN1)C1(c2ccc(F)c(C(F)(F)F)c2)CC1 [[42], Methyl (S)-(1-(4-fluoro-3-(trifluoromethyl)phenyl)cyclopropyl)(morpholin-3-ylmethyl) carbamate]",0.6118 mg/ml,1500 μM,340 nM,
"CC(C)OC(=O)N(C[C@@H]1CCCN1)C1(c2ccc(F)c(C(F)(F)F)c2)CC1 [[44], Isopropyl (S)-(1-(4-fluoro-3-(trifluoromethyl)phenyl)cyclopropyl)(pyrrolidin-2-ylmethyl)carbamate]",,,200 nM,"Measured Solubility in pH 7.4 phosphate buffer (μM) (rounded) ([1]; 16 h, pH 7.4): 1600 μM"
"COC(=O)N(C[C@@]1(C)CCCN1)C1(c2ccc(F)c(C(F)(F)F)c2)CC1 [[46], Methyl (R)-(1-(4-fluoro-3-(trifluoromethyl)phenyl)cyclopropyl)((2-methylpyrrolidin-2-yl)methyl)carbamate]",,,100 nM,
"NC1(CNC2(c3ccc(F)c(C(F)(F)F)c3)CC2)CC1 [[47], N-((1-aminocyclopropyl)methyl)-1-(4-fluoro-3-(trifluoromethyl)phenyl)cyclopropan-1-amine]",,,220 nM,
"O=C(OCC1CC1)N(C[C@@H]1CCCN1)C1(c2ccc(F)c(C(F)(F)F)c2)CC1 [[48], Cyclopropylmethyl (S)-(1-(4-fluoro-3-(trifluoromethyl)phenyl)cyclopropyl)(pyrrolidin-2-ylmethyl)carbamate]",,,230 nM,
"CS(=O)(=O)N(CC1(N)CC1)C1(c2ccc(F)c(C(F)(F)F)c2)CC1 [[49], N-((1-aminocyclopropyl)methyl)-N-(1-(4-fluoro-3-(trifluoromethyl)-phenyl)cyclopropyl)methanesulfonamide]",,,390 nM,
"COC(=O)N(C[C@]1(C)CCCN1)C1(c2ccc(F)c(C(F)(F)F)c2)CC1 [[50], Methyl (S)-(1-(4-fluoro-3-(trifluoromethyl)phenyl)cyclopropyl)((2-methylpyrrolidin-2-yl)methyl)carbamate]",,,150 nM,
"N[C@H]1CCC[C@@H]1NC1(c2ccc(F)c(C(F)(F)F)c2)CC1 [[51], (1S, 2S)—N1-(1-(4-fluoro-3-(trifluoromethyl)phenyl)cyclopropyl)-cyclopentane-1,2-diamine]",,,410 nM,
"N[C@H]1CCC[C@H]1NC1(c2ccc(F)c(C(F)(F)F)c2)CC1 [[52], (1R,2S)—N1-(1-(4-fluoro-3-(trifluoromethyl)phenyl)cyclopropyl)-cyclopentane-1,2-diamine]",,,93 nM,
"COC(=O)N(C[C@@H]1CCN1)C1(c2ccc(F)c(C(F)(F)F)c2)CC1 [[53], Methyl (S)-(azetidin-2-ylmethyl)(1-(4-fluoro-3-(trifluoromethyl)phenyl)-cyclopropyl)carbamate]",,,360 nM,"Measured Solubility in pH 7.4 phosphate buffer (μM) (rounded) ([1]; 16 h, pH 7.4): 1700 μM"
NC(=O)C(c1ccccc1)(c1ccc(F)cc1)c1ccc(F)cc1 [senicapoc],,,,Water solubility [2]: extremely low water solubility; Gas exchange in mouse model of ARDS (mouse model of ARDS): improved gas exchange
